According to US20240182445A1 (ONO PHARMACEUTICAL CO., LTD., priority 2019, published 2024):

Biological target: T1, human TREK-1 (Homo sapiens, UniProt O95069)
T1 construct: expressed in transfected cells
T1 sequence (O95069 1-426): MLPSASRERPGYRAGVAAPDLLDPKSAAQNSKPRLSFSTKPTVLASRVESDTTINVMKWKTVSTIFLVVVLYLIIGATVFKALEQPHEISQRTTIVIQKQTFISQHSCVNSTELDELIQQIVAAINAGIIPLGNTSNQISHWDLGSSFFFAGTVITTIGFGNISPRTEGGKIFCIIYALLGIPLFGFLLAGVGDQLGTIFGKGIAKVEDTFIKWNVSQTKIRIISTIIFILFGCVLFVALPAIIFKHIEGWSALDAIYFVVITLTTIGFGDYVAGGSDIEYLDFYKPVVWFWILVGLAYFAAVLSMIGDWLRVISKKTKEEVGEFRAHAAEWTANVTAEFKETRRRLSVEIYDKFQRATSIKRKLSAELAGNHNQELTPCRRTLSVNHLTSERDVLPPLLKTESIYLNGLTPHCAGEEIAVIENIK
Assay: TREK-1 Thallium (Tl+) flux assay, Method 1
Assay type: cell-based
Settings: TREK-1 Thallium (Tl+) flux assay; no *^12 (Method 2) mark on these rows
Summary of the method: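 Readout: Thallos fluorescence ratio, taken 25 s post-thallium relative to the pre-thallium baseline average, then converted to % inhibition. Cells were CHO-K1 stably expressing human TREK-1, dye-loaded and exposed to test compound (vehicle 0.3% DMSO) for 10 min prior to thallium stimulation.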

IC50 [nM] | Structure (SMILES)
310 | Cc1cc(C#Cc2ccccc2)cc(F)c1NC(=O)c1c(Cl)cnn1C[C@@H]1CCOC1 [Compound 200, (S)-4-chloro-N-(2-fluoro-6-methyl-4-(phenylethynyl)phenyl)-1-((tetrahydrofuran-3-yl)methyl)-1H-pyrazole-5-carboxamide]
590 | Cc1cc(C#Cc2ccc(F)cc2)cnc1NC(=O)c1c(Cl)cnn1CC1C2CC1CN(C(=O)C(C)C)C2 (stereo not drawn) [Compound 314, 4-chloro-N-(5-((4-fluorophenyl)ethynyl)-3-methylpyridin-2-yl)-1-((3-isobutyryl-3-azabicyclo[3.1.1]heptan-6-yl)methyl)-1H-pyrazole-5-carboxamide]
900 | CC(=O)N1C[C@H]2C[C@H](n3ncc(Cl)c3C(=O)Nc3ncc(C#Cc4ccccc4F)cc3C)C[C@H]2C1 [Compound 359, 1-[(3aR,5s,6aS)-2-acetyloctahydrocyclopenta[c]pyrrol-5-yl]-4-chloro-N-{5-[(2-fluorophenyl)ethynyl]-3-methylpyridin-2-yl}-1H-pyrazole-5-carboxamide]
620 | Cc1cc(C#Cc2ccc(F)cc2)cnc1NC(=O)c1c(Cl)cnn1C[C@H]1CCCN(C(=O)C(C)C)C1 [Compound 320, (S)-4-chloro-N-(5-((4-fluorophenyl)ethynyl)-3-methylpyridin-2-yl)-1-((1-isobutyrylpiperidin-3-yl)methyl)-1H-pyrazole-5-carboxamide]
430 | CC(=O)N1CC[C@@H](n2ncc(Cl)c2C(=O)Nc2ncc(C#Cc3ccccc3)cc2C)C[C@@H]1C (single isomer, unassigned) [Compound 261, 1-[(2S,4R)-1-acetyl-2-methylpiperidin-4-yl]-4-chloro-N-[3-methyl-5-(phenylethynyl)pyridin-2-yl]-1H-pyrazole-5-carboxamide or 1-[(2R,4S)-1-acetyl-2-methylpiperidin-4-yl]-4-chloro-N-[3-methyl-5-(phenylethynyl)pyridin-2-yl]-1H-pyrazole-5-carboxamide]
1050 | CC(=O)N1CCC(n2ncc(Cl)c2C(=O)Nc2ccc(OCc3ccccc3)cc2C)CC1 [Compound 388, 1-(1-acetylpiperidin-4-yl)-N-(4-(benzyloxy)-2-methylphenyl)-4-chloro-1H-pyrazole-5-carboxamide]
460 | Cn1ncc2cc(-n3ncc(Cl)c3C(=O)Nc3ncc(C#Cc4ccccc4)cc3F)ccc21 [Compound 270, 4-chloro-N-(3-fluoro-5-(phenylethynyl)pyridin-2-yl)-1-(1-methyl-1H-indazole-5-yl)-1H-pyrazole-5-carboxamide]

Same assay, conditions: TREK-1 Thallium (Tl+) flux assay; values without footnote *12 are Method 1

IC50 [nM] | Structure (SMILES)
230 | Cc1cc(C#Cc2cccc(F)c2)cnc1NC(=O)c1c(Cl)cnn1C1CCN(C(=O)C2CC2)CC1 [Compound 143, 4-chloro-1-(1-(cyclopropanecarbonyl)piperidin-4-yl)-N-(5-((3-fluorophenyl)ethynyl)-3-methylpyridin-2-yl)-1H-pyrazole-5-carboxamide]
190 | Cc1cc(C#Cc2ccccc2)cnc1NC(=O)c1c(Cl)cnn1C[C@H]1CCN(C(=O)C(C)C)C[C@H]1F [Compound 108, 4-chloro-1-(((3S,4R)-3-fluoro-1-isobutyrylpiperidin-4-yl)methyl)-N-(3-methyl-5-(phenylethynyl)pyridin-2-yl)-1H-pyrazole-5-carboxamide]
90 | CC(=O)N1CCCC(n2ncc(Cl)c2C(=O)Nc2ncc(C#Cc3ccccc3)cc2F)CC1 (stereo not drawn) [Compound 26]
160 | CS(=O)(=O)N1CCC(n2ncc(Cl)c2C(=O)Nc2ncc(C#Cc3ccccc3)cc2F)CC1 [Compound 70, 4-chloro-N-(3-fluoro-5-(phenylethynyl)pyridin-2-yl)-1-(1-(methylsulfonyl)piperidin-4-yl)-1H-pyrazole-5-carboxamide]
250 | CCNC(=O)N1CCC(n2ncc(Cl)c2C(=O)Nc2ncc(C#Cc3ccccc3)cc2F)CC1 [Compound 158, 4-(4-chloro-5-((3-fluoro-5-(phenylethynyl)pyridin-2-yl)carbamoyl)-1H-pyrazol-1-yl)-N-ethylpiperidine-1-carboxamide]
